Measurements taken from patent US20230024096A1, “BIFUNCTIONAL COMPOUNDS FOR THE TREATMENT OF CANCER” (Hoffmann-La Roche Inc., priority 2019, published 2023).

Target: T1, SMARCA2 (Homo sapiens, UniProt P51531)
T1 construct: endogenous in cells; host or cells: HT1080 (CRISPR HiBiT knock-in clone, generated in house)
Assay: SMARCA2 HiBiT degradation assay (cellular)
Assay type: cell-based
Details: table head names A549; for DC50: 6 h incubation, HiBiT-tagged SMARCA2, luminescence read-out, read-out: HiBit A549 SMARCA2 IP (nM) 6 h; for Emax: A549, 6 h incubation, Emax = amount of residual protein remaining in the cell following compound treatment

T1 sequence (P51531 whole entry): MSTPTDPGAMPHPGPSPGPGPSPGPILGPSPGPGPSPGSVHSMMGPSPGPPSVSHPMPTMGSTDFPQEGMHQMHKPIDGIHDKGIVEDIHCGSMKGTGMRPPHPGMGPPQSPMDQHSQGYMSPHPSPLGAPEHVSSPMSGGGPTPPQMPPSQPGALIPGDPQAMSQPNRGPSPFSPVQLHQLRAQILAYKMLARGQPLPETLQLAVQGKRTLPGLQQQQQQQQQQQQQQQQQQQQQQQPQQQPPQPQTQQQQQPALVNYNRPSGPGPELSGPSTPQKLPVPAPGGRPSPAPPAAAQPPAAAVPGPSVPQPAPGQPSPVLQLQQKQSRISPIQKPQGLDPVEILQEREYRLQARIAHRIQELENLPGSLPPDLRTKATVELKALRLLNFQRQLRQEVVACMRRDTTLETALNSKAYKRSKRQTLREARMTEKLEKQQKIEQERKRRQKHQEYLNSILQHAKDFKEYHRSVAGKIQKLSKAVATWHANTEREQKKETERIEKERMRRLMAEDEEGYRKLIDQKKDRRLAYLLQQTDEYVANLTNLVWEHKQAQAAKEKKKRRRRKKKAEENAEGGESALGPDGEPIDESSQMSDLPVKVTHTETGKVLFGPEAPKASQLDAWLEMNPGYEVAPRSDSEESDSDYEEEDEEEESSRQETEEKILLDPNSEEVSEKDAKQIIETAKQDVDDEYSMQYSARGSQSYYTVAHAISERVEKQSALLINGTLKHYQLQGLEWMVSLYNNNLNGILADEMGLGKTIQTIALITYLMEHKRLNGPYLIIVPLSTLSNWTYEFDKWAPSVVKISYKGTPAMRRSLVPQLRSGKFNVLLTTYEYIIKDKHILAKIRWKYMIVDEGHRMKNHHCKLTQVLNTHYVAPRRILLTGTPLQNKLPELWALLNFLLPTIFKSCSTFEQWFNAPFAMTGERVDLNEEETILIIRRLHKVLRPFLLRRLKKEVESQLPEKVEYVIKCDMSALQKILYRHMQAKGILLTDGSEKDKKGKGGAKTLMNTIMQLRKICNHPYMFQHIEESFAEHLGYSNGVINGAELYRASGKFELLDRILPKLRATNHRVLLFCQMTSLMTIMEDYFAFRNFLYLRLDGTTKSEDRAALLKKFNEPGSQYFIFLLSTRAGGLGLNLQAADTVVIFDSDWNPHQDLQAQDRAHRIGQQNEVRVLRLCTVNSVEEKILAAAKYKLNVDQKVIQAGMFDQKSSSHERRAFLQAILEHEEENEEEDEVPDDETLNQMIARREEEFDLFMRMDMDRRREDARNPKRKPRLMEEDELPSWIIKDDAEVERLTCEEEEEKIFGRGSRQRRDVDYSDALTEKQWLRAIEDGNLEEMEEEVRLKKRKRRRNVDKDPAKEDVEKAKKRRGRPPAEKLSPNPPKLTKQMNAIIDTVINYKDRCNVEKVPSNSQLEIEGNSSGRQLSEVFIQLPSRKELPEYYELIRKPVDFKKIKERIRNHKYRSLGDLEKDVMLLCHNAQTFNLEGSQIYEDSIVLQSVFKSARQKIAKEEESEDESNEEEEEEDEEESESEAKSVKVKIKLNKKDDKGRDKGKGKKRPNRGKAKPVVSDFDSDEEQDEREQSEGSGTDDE

| Compound | DC50 [nM] | Emax [%] |
| --- | --- | --- |
| Nc1nnc(-c2ccccc2O)cc1N1CC2CCC(C1)N2c1cccc(CN2CCN(C(=O)C3CCN(c4ccc5c(c4)C(=O)N(C4CCC(=O)NC4=O)C5=O)CC3)CC2)c1 (racemic) [Example 46, rac-5-[4-[4-[[3-[3-[3-Amino-6-(2-hydroxyphenyl)pyridazin-4-yl]-3,8-diazabicyclo[3.2.1]octan-8-yl]phenyl]methyl]piperazine-1-carbonyl]-1-piperidyl]-2-(2,6-dioxo-3-piperidyl)isoindoline-1,3-dione] | 12 | 24 |
| Nc1nnc(-c2ccccc2O)cc1N1CC2CCC(C1)N2c1cccc(OCCN2CCN(C(=O)CCC3CCN(c4cccc5c4C(=O)N(C4CCC(=O)NC4=O)C5=O)CC3)CC2)c1 (racemic) [Example 16, rac-4-[4-[3-[4-[2-[3-[3-[3-amino-6-(2-hydroxyphenyl)pyridazin-4-yl]-3,8-diazabicyclo[3.2.1]octan-8-yl]phenoxy]ethyl]piperazin-1-yl]-3-oxo-propyl]-1-piperidyl]-2-(2,6-dioxo-3-piperidyl)isoindoline-1,3-dione] | 46 | 50 |
| Cc1c(C(=O)N2CCN(C(=O)CCC3CCN(c4ccc5c(c4)C(=O)N(C4CCC(=O)NC4=O)C5=O)CC3)CC2)cccc1N1C2CCC1CN(c1cc(-c3ccccc3O)nnc1N)C2 (racemic) [Example 117, rac-5-[4-[3-[4-[3-[3-[3-amino-6-(2-hydroxyphenyl)pyridazin-4-yl]-3,8-diazabicyclo[3.2.1]octan-8-yl]-2-methyl-benzoyl]piperazin-1-yl]-3-oxo-propyl]-1-piperidyl]-2-(2,6-dioxo-3-piperidyl)isoindoline-1,3-dione] | 144 | 50 |
| Nc1nnc(-c2ccccc2O)cc1N1CC2CCC(C1)N2c1cccc(CC2CCN(C(=O)CCC3CCN(c4ccc5c(c4)C(=O)N(C4CCC(=O)NC4=O)C5=O)CC3)CC2)c1 (racemic) [Example 59, rac-5-[4-[3-[4-[[3-[3-[3-amino-6-(2-hydroxyphenyl)pyridazin-4-yl]-3,8-diazabicyclo[3.2.1]octan-8-yl]phenyl]methyl]-1-piperidyl]-3-oxo-propyl]-1-piperidyl]-2-(2,6-dioxo-3-piperidyl)isoindoline-1,3-dione] | 129 | 65 |
| Nc1nnc(-c2ccccc2O)cc1N1CC2CCC(C1)N2c1cccc(OCCN2CCN(C(=O)CCCCCCCCNc3cccc4c3C(=O)N(C3CCC(=O)NC3=O)C4=O)CC2)c1 (centres unmarked) [Example 6, 4-[[9-[4-[2-[3-[3-[3-amino-6-(2-hydroxyphenyl)pyridazin-4-yl]-3,8-diazabicyclo[3.2.1]octan-8-yl]phenoxy]ethyl]piperazin-1-yl]-9-oxo-nonyl]amino]-2-(2,6-dioxo-3-piperidyl)isoindoline-1,3-dione] | 334 | 58 |
| Nc1nnc(-c2ccccc2O)cc1N1CC2CCC(C1)N2c1cccc(CN2CCC(C(=O)NC3CN(c4ccc5c(c4)C(=O)N(C4CCC(=O)NC4=O)C5=O)C3)CC2)c1 (racemic) [Example 134, rac-1-[[3-[3-[3-amino-6-(2-hydroxyphenyl)pyridazin-4-yl]-3,8-diazabicyclo[3.2.1]octan-8-yl]phenyl]methyl]-N-[1-[2-(2,6-dioxo-3-piperidyl)-1,3-dioxo-isoindolin-5-yl]azetidin-3-yl]piperidine-4-carboxamide] | 31 | 36 |
| Nc1nnc(-c2ccccc2O)cc1N1CC2CCC(C1)N2c1cccc(OCCN2CCN(C(=O)C3CCN(c4cccc5c4C(=O)N(C4CCC(=O)NC4=O)C5=O)CC3)CC2)c1 (racemic) [Example 13, rac-4-[4-[4-[2-[3-[3-[3-amino-6-(2-hydroxyphenyl)pyridazin-4-yl]-3,8-diazabicyclo[3.2.1]octan-8-yl]phenoxy]ethyl]piperazine-1-carbonyl]-1-piperidyl]-2-(2,6-dioxo-3-piperidyl)isoindoline-1,3-dione] | 32 | 64 |
| Nc1nnc(-c2ccccc2O)cc1N1CC2CCC(C1)N2c1cccc(OCCN2CCN(C(=O)CN3CCC(c4ccc(OC5CCC(=O)NC5=O)cc4)CC3)CC2)c1 (racemic) [Example 43, rac-3-[4-[1-[2-[4-[2-[3-[3-[3-amino-6-(2-hydroxyphenyl)pyridazin-4-yl]-3,8-diazabicyclo[3.2.1]octan-8-yl]phenoxy]ethyl]piperazin-1-yl]-2-oxo-ethyl]-4-piperidyl]phenoxy]piperidine-2,6-dione] | 32 | 31 |

More lines, now with the values ahead:

| DC50 [nM] | Emax [%] | Compound |
| --- | --- | --- |
| 70 | 29 | Nc1nnc(-c2ccccc2O)cc1N1CCC(C(=O)N2CC3(CN(C(=O)CC4CCN(c5ccc6c(c5)C(=O)N(C5CCC(=O)NC5=O)C6=O)CC4)C3)C2)(c2ccccc2)CC1 (centres unmarked) [Example 122, 5-(4-(2-(6-(1-(3-amino-6-(2-hydroxyphenyl)pyridazin-4-yl)-4-phenylpiperidine-4-carbonyl)-2,6-diazaspiro[3.3]heptan-2-yl)-2-oxoethyl)piperidin-1-yl)-2-(2,6-dioxopiperidin-3-yl)isoindoline-1,3-dione] |
| 627 | 58 | Nc1nnc(-c2ccccc2O)cc1OC1CCCN(c2ccc(N3CCN(C(=O)CCCCCCCC(=O)N4CC[C@H](Nc5cccc6c5C(=O)N(C5CCC(=O)NC5=O)C6=O)C4)CC3)cc2)C1 (mixture of isomers) [Example 45, 2-(2,6-dioxo-3-piperidyl)-4-[[rac-(3S)-1-[9-[4-[4-[3-[3-amino-6-(2-hydroxyphenyl)pyridazin-4-yl]oxy-1-piperidyl]phenyl]piperazin-1-yl]-9-oxo-nonanoyl]pyrrolidin-3-yl]amino]isoindoline-1,3-dione] |
| 99 | 37 | Nc1nnc(-c2cc(F)ccc2O)cc1N1CCC(CNC(=O)CCCN2CCC(c3ccc(OC4CCC(=O)NC4=O)cc3)CC2)(c2ccccc2)CC1 (centres unmarked) [Example 183, N-[[1-[3-amino-6-(5-fluoro-2-hydroxy-phenyl)pyridazin-4-yl]-4-phenyl-4-piperidyl]methyl]-4-[4-[4-[(2,6-dioxo-3-piperidyl)oxy]phenyl]-1-piperidyl]butanamide] |
| 190 | 65 | Nc1nnc(-c2ccccc2O)cc1N1CCN(c2ccccc2)C(C(=O)NCC2CCN(C(=O)C3CCN(c4ccc5c(c4)C(=O)N(C4CCC(=O)NC4=O)C5=O)CC3)CC2)C1 (centres unmarked) [Example 82, 4-(3-amino-6-(2-hydroxyphenyl)pyridazin-4-yl)-N-((1-(1-(2-(2,6-dioxopiperidin-3-yl)-1,3-dioxoisoindolin-5-yl)piperidine-4-carbonyl)piperidin-4-yl)methyl)-1-phenylpiperazine-2-carboxamide] |
| 46 | 30 | Nc1nnc(-c2ccccc2O)cc1N1CCN(c2cccc(OCCN3CCN(C(=O)C4CCN(c5ccc6c(c5)C(=O)N(C5CCC(=O)NC5=O)C6=O)CC4)CC3)c2)C2(CCC2)C1 (centres unmarked) [Example 197, 5-[4-[4-[2-[3-[8-[3-amino-6-(2-hydroxyphenyl)pyridazin-4-yl]-5,8-diazaspiro[3.5]nonan-5-yl]phenoxy]ethyl]piperazine-1-carbonyl]-1-piperidyl]-2-(2,6-dioxo-3-piperidyl)isoindoline-1,3-dione] |
| 19 | 21 | Nc1nnc(-c2ccccc2O)cc1N1CC(Oc2cccc(N3CCN(C(=O)CCC4CCN(c5ccc6c(c5)C(=O)N(C5CCC(=O)NC5=O)C6=O)CC4)CC3)c2)C1 (racemic) [Example 153, rac-5-[4-[3-[4-[3-[1-[3-amino-6-(2-hydroxyphenyl)pyridazin-4-yl]azetidin-3-yl]oxyphenyl]piperazin-1-yl]-3-oxo-propyl]-1-piperidyl]-2-(2,6-dioxo-3-piperidyl)isoindoline-1,3-dione] |
| 104 | 30 | Nc1nnc(-c2ccccc2O)cc1N1CCC(C(=O)NCC2CCN(CC3CCN(c4ccc5c(c4)C(=O)N(C4CCC(=O)NC4=O)C5=O)CC3)CC2)(c2ccccc2)CC1 (centres unmarked) [Example 100, 1-(3-amino-6-(2-hydroxyphenyl)pyridazin-4-yl)-N-((1-((1-(2-(2,6-dioxopiperidin-3-yl)-1,3-dioxoisoindolin-5-yl)piperidin-4-yl)methyl)piperidin-4-yl)methyl)-4-phenylpiperidine-4-carboxamide] |
| 3 | 17 | Nc1nnc(-c2ccccc2O)cc1N1CC(Oc2cccc(CN3CCN(C(=O)CN4CCC(c5ccc(NC6CCC(=O)NC6=O)cc5)CC4)CC3)c2)C1 (racemic) [Example 156, rac-3-[4-[1-[2-[4-[[3-[1-[3-amino-6-(2-hydroxyphenyl)pyridazin-4-yl]azetidin-3-yl]oxyphenyl]methyl]piperazin-1-yl]-2-oxo-ethyl]-4-piperidyl]anilino]piperidine-2,6-dione] |
| 51 | 65 | Nc1nnc(-c2ccccc2O)cc1N1CCC(OCC(=O)NC2CCN(C(=O)C3CCN(c4ccc5c(c4)C(=O)N(C4CCC(=O)NC4=O)C5=O)CC3)CC2)(c2ccccc2)CC1 (centres unmarked) [Example 196, 2-[[1-[3-amino-6-(2-hydroxyphenyl)pyridazin-4-yl]-4-phenyl-4-piperidyl]oxy]-N-[1-[1-[2-(2,6-dioxo-3-piperidyl)-1,3-dioxo-isoindolin-5-yl]piperidine-4-carbonyl]-4-piperidyl]acetamide] |
| 273 | 62 | Nc1nnc(-c2ccccc2O)cc1N1CCC(CNC(=O)COc2cccc3c2C(=O)N(C2CCC(=O)NC2=O)C3=O)(c2ccccc2)CC1 (centres unmarked) [Example 72, N-[[1-[3-amino-6-(2-hydroxyphenyl)pyridazin-4-yl]-4-phenyl-4-piperidyl]methyl]-2-[2-(2,6-dioxo-3-piperidyl)-1,3-dioxo-isoindolin-4-yl]oxy-acetamide] |
| 100 | 33 | Nc1nnc(-c2ccccc2O)cc1N1CCC(C(=O)NCC2CCN(C(=O)CCCN3CCC(c4ccc(NC5CCC(=O)NC5=O)cc4)CC3)CC2)(c2ccccc2)CC1 (centres unmarked) [Example 105, 1-(3-amino-6-(2-hydroxyphenyl)pyridazin-4-yl)-N-((1-(4-(4-(4-((2,6-dioxopiperidin-3-yl)amino)phenyl)piperidin-1-yl)butanoyl)piperidin-4-yl)methyl)-4-phenylpiperidine-4-carboxamide] |
